Measurements: PMC13230610, “Fast analysis and engineering of protein function by microbe-independent deep assembly and screening” (Molecular Systems Biology, 2026)

What was measured:
[1] = test system: T1, ACh-NeuBI0.5 (engineered OpuBC fused with SmBiT/LgBiT and mScarlet-I); experiment: bioluminescence dose-response of indicator expressed on HEK293A cells; format: cell-based, Homo sapiens (HEK293A cells)
T1 construct: mScarlet-I at N-terminus of OpuBC (30-106)-linker 1 (Phe)-SmBiT (∆C3)-LgBiT-OpuBC (107-305)

[2] = test system: T2, ACh-NeuBI1b (ACh-NeuBI0.5 QAE; engineered OpuBC fused with SmBiT/LgBiT and mScarlet-I); experiment: bioluminescence dose-response in HEK293A cells; also purified protein responded; format: cell-based, Homo sapiens (HEK293A cells)
T2 construct: ACh-NeuBI0.5 QAE

SMILES: CC(=O)OCC[N+](C)(C)C [acetylcholine]
- Kd [1]: 898 µM
- Kd [2]: 188 µM

SMILES: C[N+](C)(C)CCO [choline]
- Kd [1]: 11000 µM
